# Measurements from PubChem BioAssay (NCI).
#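 A five-concentration, 48-hour dose response in 96-well plates underlies each endpoint, interpolated linearly between surrounding concentrations. Abbreviation: GI50, concentration required for 50% inhibition of growth. The concentration for full growth arrest is given as TGI.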
# Columns and labels:
# Assay in all cases: DTP human tumour cell line panel, 48 h
# A498 renal = tested on: A498 renal
# SNB-75 CNS = tested on: SNB-75 CNS
# 786-0 renal = tested on: 786-0 renal
# RPMI-8226 leukemia = tested on: RPMI-8226 leukemia
# OVCAR-5 ovarian = tested on: OVCAR-5 ovarian
# UACC-62 melanoma = tested on: UACC-62 melanoma
# UO-31 renal = tested on: UO-31 renal
# HCT-15 colon = tested on: HCT-15 colon
# SR leukemia = tested on: SR leukemia
# SF-295 CNS = tested on: SF-295 CNS
# DU-145 prostate = tested on: DU-145 prostate
# NCI-H522 lung = tested on: NCI-H522 lung
# NCI-H226 lung = tested on: NCI-H226 lung
# HCC-2998 colon = tested on: HCC-2998 colon
# IGROV1 ovarian = tested on: IGROV1 ovarian
# K-562 leukemia = tested on: K-562 leukemia
# ACHN renal = tested on: ACHN renal
# OVCAR-4 ovarian = tested on: OVCAR-4 ovarian
# HCT-116 colon = tested on: HCT-116 colon
# M14 melanoma = tested on: M14 melanoma
# HOP-92 NSCLC = tested on: HOP-92 NSCLC
# A549 NSCLC = tested on: A549 NSCLC
# UACC-257 melanoma = tested on: UACC-257 melanoma
# EKVX NSCLC = tested on: EKVX NSCLC
# SK-MEL-2 melanoma = tested on: SK-MEL-2 melanoma
# SK-MEL-5 melanoma = tested on: SK-MEL-5 melanoma
# OVCAR-3 ovarian = tested on: OVCAR-3 ovarian
# SF-539 CNS = tested on: SF-539 CNS
# SK-MEL-28 melanoma = tested on: SK-MEL-28 melanoma
# KM12 colon = tested on: KM12 colon
# T-47D breast = tested on: T-47D breast
# U251 CNS = tested on: U251 CNS
# SF-268 CNS = tested on: SF-268 CNS
# TK-10 renal = tested on: TK-10 renal
# HOP-62 NSCLC = tested on: HOP-62 NSCLC
# SW-620 colon = tested on: SW-620 colon
# HT29 colon = tested on: HT29 colon
# NCI-H23 lung = tested on: NCI-H23 lung
# OVCAR-8 ovarian = tested on: OVCAR-8 ovarian
# BT-549 breast = tested on: BT-549 breast
# SK-OV-3 ovarian = tested on: SK-OV-3 ovarian
# RXF 393 renal = tested on: RXF 393 renal
# MOLT-4 leukemia = tested on: MOLT-4 leukemia
# NCI/ADR-RES ovarian = tested on: NCI/ADR-RES ovarian
# LOX IMVI melanoma = tested on: LOX IMVI melanoma
# SN12C renal = tested on: SN12C renal
# CAKI-1 renal = tested on: CAKI-1 renal
# CCRF-CEM leukemia = tested on: CCRF-CEM leukemia
# COLO 205 colon = tested on: COLO 205 colon
# HL-60(TB) leukemia = tested on: HL-60(TB) leukemia
# PC-3 prostate = tested on: PC-3 prostate
# MCF7 breast = tested on: MCF7 breast
# MDA-MB-231 breast = tested on: MDA-MB-231 breast
# NCI-H460 lung = tested on: NCI-H460 lung
# SNB-19 CNS = tested on: SNB-19 CNS
# MALME-3M melanoma = tested on: MALME-3M melanoma
# HS 578T breast = tested on: HS 578T breast
# MDA-MB-435 = tested on: MDA-MB-435
compound,measurement,setting,value
C[N+](C)(C)CC(=O)N/N=C(/CC(=O)CC(C1=C(O)c2ccccc2OC1)c1ccccc1)C(=O)Nc1cccc(Cl)c1 (stereo unspecified),TGI,A498 renal,> 100 µM
same,TGI,SNB-75 CNS,> 100 µM
same,TGI,786-0 renal,> 100 µM
same,TGI,RPMI-8226 leukemia,> 100 µM
same,TGI,OVCAR-5 ovarian,> 100 µM
same,TGI,UACC-62 melanoma,> 100 µM
same,TGI,UO-31 renal,> 100 µM
same,TGI,HCT-15 colon,> 100 µM
same,TGI,SR leukemia,> 100 µM
same,TGI,SF-295 CNS,> 100 µM
same,TGI,DU-145 prostate,> 100 µM
same,TGI,NCI-H522 lung,> 100 µM
same,TGI,NCI-H226 lung,> 100 µM
same,TGI,HCC-2998 colon,> 100 µM
same,TGI,IGROV1 ovarian,> 100 µM
same,TGI,K-562 leukemia,> 100 µM
same,TGI,ACHN renal,> 100 µM
same,TGI,OVCAR-4 ovarian,> 100 µM
same,TGI,HCT-116 colon,> 100 µM
same,TGI,M14 melanoma,> 100 µM
same,TGI,HOP-92 NSCLC,> 100 µM
same,TGI,A549 NSCLC,> 100 µM
same,TGI,UACC-257 melanoma,> 100 µM
same,TGI,EKVX NSCLC,> 100 µM
same,TGI,SK-MEL-2 melanoma,> 100 µM
same,TGI,SK-MEL-5 melanoma,> 100 µM
same,TGI,OVCAR-3 ovarian,> 100 µM
same,TGI,SF-539 CNS,> 100 µM
same,TGI,SK-MEL-28 melanoma,> 100 µM
same,TGI,KM12 colon,> 100 µM
same,TGI,T-47D breast,> 100 µM
same,TGI,U251 CNS,> 100 µM
same,TGI,SF-268 CNS,> 100 µM
same,TGI,TK-10 renal,> 100 µM
same,TGI,HOP-62 NSCLC,> 100 µM
same,TGI,SW-620 colon,> 100 µM
same,TGI,HT29 colon,> 100 µM
same,TGI,NCI-H23 lung,> 100 µM
same,TGI,OVCAR-8 ovarian,> 100 µM
same,TGI,BT-549 breast,> 100 µM
same,TGI,SK-OV-3 ovarian,> 100 µM
same,TGI,RXF 393 renal,> 100 µM
same,TGI,MOLT-4 leukemia,> 100 µM
same,TGI,NCI/ADR-RES ovarian,> 100 µM
same,TGI,LOX IMVI melanoma,> 100 µM
same,TGI,SN12C renal,> 100 µM
same,TGI,CAKI-1 renal,> 100 µM
same,TGI,CCRF-CEM leukemia,> 100 µM
same,TGI,COLO 205 colon,> 100 µM
same,TGI,HL-60(TB) leukemia,> 100 µM
same,TGI,PC-3 prostate,> 100 µM
same,TGI,MCF7 breast,> 100 µM
same,TGI,MDA-MB-231 breast,> 100 µM
NS(=O)(=O)OC[C@@H]1C[C@@H](n2ccc3c(NC4CCc5ccccc54)ncnc32)C[C@@H]1O (stereo partly specified),GI50,A498 renal,0.123 µM
same,TGI,A498 renal,2.27 µM
same,GI50,SNB-75 CNS,20.8 µM
same,TGI,SNB-75 CNS,> 100 µM
same,GI50,NCI-H460 lung,0.341 µM
same,TGI,NCI-H460 lung,23.9 µM
same,GI50,786-0 renal,0.671 µM
same,TGI,786-0 renal,29.7 µM
same,GI50,RPMI-8226 leukemia,5.41 µM
same,TGI,RPMI-8226 leukemia,27.6 µM
same,GI50,OVCAR-5 ovarian,16.4 µM
same,TGI,OVCAR-5 ovarian,96.9 µM
same,GI50,UACC-62 melanoma,0.0856 µM
same,TGI,UACC-62 melanoma,20.6 µM
same,GI50,UO-31 renal,11 µM
same,TGI,UO-31 renal,> 100 µM
same,GI50,HCT-15 colon,2.59 µM
same,TGI,HCT-15 colon,70.1 µM
same,GI50,SR leukemia,0.0827 µM
same,TGI,SR leukemia,29.5 µM
same,GI50,SF-295 CNS,0.337 µM
same,TGI,SF-295 CNS,4.52 µM
same,GI50,DU-145 prostate,0.384 µM
same,TGI,DU-145 prostate,> 100 µM
same,GI50,NCI-H522 lung,3.31 µM
same,TGI,NCI-H522 lung,27.3 µM
same,GI50,NCI-H226 lung,0.362 µM
same,GI50,HCC-2998 colon,2.97 µM
same,TGI,HCC-2998 colon,18.2 µM
same,GI50,SNB-19 CNS,12.5 µM
same,TGI,SNB-19 CNS,> 100 µM
same,GI50,IGROV1 ovarian,7.83 µM
same,TGI,IGROV1 ovarian,> 100 µM
same,GI50,K-562 leukemia,0.405 µM
same,TGI,K-562 leukemia,32.3 µM
same,GI50,ACHN renal,0.332 µM
same,TGI,ACHN renal,1.8 µM
same,GI50,OVCAR-4 ovarian,15.7 µM
same,TGI,OVCAR-4 ovarian,> 100 µM
same,GI50,HCT-116 colon,0.103 µM
same,TGI,HCT-116 colon,5.46 µM
same,GI50,M14 melanoma,0.712 µM
same,TGI,M14 melanoma,> 100 µM
same,GI50,A549 NSCLC,0.797 µM
same,TGI,A549 NSCLC,47.7 µM
same,GI50,UACC-257 melanoma,1.02 µM
same,TGI,UACC-257 melanoma,> 90.7 µM
same,GI50,EKVX NSCLC,21.4 µM
same,TGI,EKVX NSCLC,> 100 µM
same,GI50,SK-MEL-2 melanoma,0.74 µM
same,TGI,SK-MEL-2 melanoma,21 µM
same,GI50,SK-MEL-5 melanoma,0.305 µM
same,TGI,SK-MEL-5 melanoma,17.2 µM
same,GI50,OVCAR-3 ovarian,2.93 µM
same,TGI,OVCAR-3 ovarian,33.7 µM
same,GI50,SF-539 CNS,1.28 µM
same,TGI,SF-539 CNS,20.3 µM
same,GI50,SK-MEL-28 melanoma,3.94 µM
same,TGI,SK-MEL-28 melanoma,> 100 µM
same,GI50,KM12 colon,1.13 µM
same,TGI,KM12 colon,49.1 µM
same,GI50,T-47D breast,0.0607 µM
same,TGI,T-47D breast,63.6 µM
same,GI50,U251 CNS,0.559 µM
same,TGI,U251 CNS,36.9 µM
same,GI50,MALME-3M melanoma,21.9 µM
same,TGI,MALME-3M melanoma,> 92.8 µM
same,GI50,HS 578T breast,16.8 µM
same,TGI,HS 578T breast,61.3 µM
same,GI50,SF-268 CNS,0.548 µM
same,TGI,SF-268 CNS,> 100 µM
same,GI50,TK-10 renal,14.1 µM
same,TGI,TK-10 renal,> 100 µM
same,GI50,HOP-62 NSCLC,3.23 µM
same,TGI,HOP-62 NSCLC,> 46.9 µM
same,GI50,SW-620 colon,3.34 µM
same,TGI,SW-620 colon,> 77.6 µM
same,GI50,HT29 colon,0.566 µM
same,TGI,HT29 colon,29.2 µM
same,GI50,NCI-H23 lung,1.34 µM
same,TGI,NCI-H23 lung,46.1 µM
same,GI50,OVCAR-8 ovarian,0.823 µM
same,TGI,OVCAR-8 ovarian,36.7 µM
same,GI50,BT-549 breast,22.8 µM
same,TGI,BT-549 breast,> 95.7 µM
same,GI50,SK-OV-3 ovarian,9.36 µM
same,TGI,SK-OV-3 ovarian,> 93.9 µM
same,GI50,RXF 393 renal,11.2 µM
same,TGI,RXF 393 renal,37.1 µM
same,GI50,MOLT-4 leukemia,0.37 µM
same,TGI,MOLT-4 leukemia,11.1 µM
same,GI50,NCI/ADR-RES ovarian,68.8 µM
same,TGI,NCI/ADR-RES ovarian,> 100 µM
same,GI50,LOX IMVI melanoma,0.0673 µM
same,TGI,LOX IMVI melanoma,0.436 µM
same,GI50,SN12C renal,0.614 µM
same,TGI,SN12C renal,> 100 µM
same,GI50,CAKI-1 renal,0.52 µM
same,TGI,CAKI-1 renal,> 100 µM
same,GI50,CCRF-CEM leukemia,0.324 µM
same,TGI,CCRF-CEM leukemia,55.9 µM
same,GI50,COLO 205 colon,0.524 µM
same,TGI,COLO 205 colon,> 51.2 µM
same,GI50,HL-60(TB) leukemia,0.214 µM
same,TGI,HL-60(TB) leukemia,14 µM
same,GI50,MDA-MB-435,5.75 µM
same,TGI,MDA-MB-435,> 100 µM
same,GI50,PC-3 prostate,17 µM
same,TGI,PC-3 prostate,> 100 µM
same,GI50,MCF7 breast,0.0386 µM
same,TGI,MCF7 breast,> 100 µM
same,GI50,MDA-MB-231 breast,10.1 µM
same,TGI,MDA-MB-231 breast,> 100 µM
